Measured values from patent publication US20220175675A1, “ENCAPSULATING MOLECULES IN FAT GLOBULES” (The Regents of the University of California, priority 2019, published 2022).
Where “and” joins values, the source holds several entries; their conditions need not be identical. Equal values may be shown once. Read-outs that look alike come from different tables or passages of the source. Marks after values point to notes of the source that are not given here. Each block holds one molecule with its values, some of them ahead of it.

Columns and labels:
[1] = Encapsulation of hydrophobic compounds into milk fat globules (loading capacity, encapsulation efficiency); assay type: physicochemical, bovine; details: 10% v/v ethanol, 30 min; for % Encapsulation efficiency / maximal loading capacity (LC): room temperature; for maximal loading capacity (LC): maximal value over 50-2500 μM
Method: Raw milk was procured from a local market and stored at 4° C. Milk was used for up to 4 days post purchase. MFGs were separated from raw milk using centrifugal separation following a modified version of the method by Gallier et al. (2010) (12). First, raw milk was diluted with Milli-Q water at 9:1 water to milk, and the solution was centrifuged at 3,000×g for 5 min using a fixed angle centrifuge rotor. Cream was then skimmed off the sides of the centrifuged tubes after discarding the aqueous phase. In order to remove more of the milk serum components, cream was reconstituted in water to reach 4% w/v, and subjected to another step of centrifugation at 3,000×g for 5 min Cream was collected as detailed prior, then reconstituted to 20% w/v in Milli-Q water. All separation steps were completed at room temperature.
Encapsulation of test compounds in MFGs was accomplished by mixing ethanolic stock solution of a compound with 20% w/v cream suspended in water. The mixture was gently inverted several times to mix, then allowed in incubate in the dark.
To test the effect of incubation temperature on the partitioning and encapsulation yield and efficiency, RA was added at 250 μM concentration and was allowed to incubate with MFGs for 30 min at 4, 22, and 40° C.
To quantify the amount of compound encapsulated in MFGs, cream was separated from ethanol-containing aqueous phase via centrifugal separation at 3,000 x g for 5 min. Cream was skimmed and added to methanol at 50 mg/mL and vortexed vigorously for 1 min, then centrifuged at 16,000×g for 10 min. Top layer of methanol was collected and absorbance was measured at appropriate wavelength for each compound. An absorbance blank was prepared following the same encapsulation and separation steps in the absence of compound. λmax in methanol (nm) for each compound is reported in Table 1.
Cream (20% w/v in Milli-Q water) that was separated following the steps in Example 2 was further separated via centrifugation at 3,000×g for 5 min. Fat content in cream was measured using a modified Folch method (13). An additional washing step was incorporated where the chloroform/water interface was washed with 1:1 water/methanol solution.

[2] = cited from earlier work; for Water/octanol partitioning coefficient, Log P: Measured or estimated, from references; for Log P: octanol/water
[3] = cited from earlier work
[4] = Water/octanol partitioning coefficient, Log P
From the text: One such molecular property that is used to predict partitioning potential is the octanol—water partition coefficient; Log P, which is the logarithm of the ratio of the solute concentration in the octanol phase to the solute concentration in the water phase, at a defined temperature.

[5] = Loading of curcumin in milk fat globules; assay type: physicochemical, bovine
Method: Raw milk was used within 3-4 days of purchasing during which it was stored at 4° C. MFGs were isolated using a modified form of the method by […] et al. (2010) ^3° . […] Raw cream that was separated following the method stated in Example 31 was used for the quantification of oil content per gram of raw cream. […] The two immiscible phases were separated. […] Chloroform extracts were combined and the solvent was removed under vacuum at room temperature for 24 h. Mass of the isolated lipid from the sample was measured gravimetrically. Measurements were completed in triplicated from independent raw milk samples. […] Incubation was completed in the dark to prevent photodegradation of curcumin. […] Encapsulations measurements were conducted in triplicates. […] The mixture was then vortexed rigorously, followed by centrifugation at 16,000×g for 10 min. […] Curcumin containing samples were kept covered throughout the extraction and measurements steps. The encapsulation efficiency was calculated as follows: where CE is the mass of curcumin extracted from MFGs, and […]. The loading capacity was calculated as follows: where CE is the mass of curcumin extracted from MFGs, and MF is the mass of milk fat in MFGs suspension.

[6] = AAPH measurement of curcumin oxidative stability; assay type: physicochemical
Method: 100 mg/ml encapsulated oleosome and encapsulated whey protein emulsion were respectively added with 40mM AAPH (Sigma) or water as control. Encapsulated oleosome and whey protein emulsion were then rotated and curcumin was extracted at different time points.

[7] = 200 μg/g added curcumin/cream, 1 v/v % ethanol, 10 min
[8] = 400 μg/g added curcumin/cream, 2 v/v % ethanol, 10 min
[9] = 600 μg/g added curcumin/cream, 3 v/v % ethanol, 10 min
[10] = 1000 μg/g added curcumin/cream, 5 v/v % ethanol, 10 min
[11] = 1600 μg/g added curcumin/cream, 8 v/v % ethanol, 10 min
[12] = 2000 μg/g added curcumin/cream, 10 v/v % ethanol, 10 min

Structure (SMILES): O.O=c1c(O)c(-c2ccc(O)c(O)c2)oc2cc(O)cc(O)c12 [Quercetin hydrate]
% Encapsulation efficiency ([1]; 50 μM added compound): 25.27 ± 3.47^ %
% Encapsulation efficiency ([1]; 100 μM added compound): 45.35 ± 8.53 %
% Encapsulation efficiency ([1]; 150 μM added compound): 43.78 ± 4.16 %
% Encapsulation efficiency ([1]; 200 μM added compound): 50.09 ± 3.71 %
% Encapsulation efficiency ([1]; 250 μM added compound): 48.95 ± 3.47 %
% Encapsulation efficiency ([1]; 500 μM added compound): 49.00 ± 1.17 %
% Encapsulation efficiency ([1]; 1000 μM added compound): 12.91 ± 1.78 %
% Encapsulation efficiency ([1]; 1500 μM added compound): 18.38 ± 9.27 %
% Encapsulation efficiency ([1]; 2000 μM added compound): 17.92 ± 4.31 %
% Encapsulation efficiency ([1]; 2500 μM added compound): 13.70 ± 1.30 %
maximal loading capacity (LC) [1]: 12.97 μg per gram of milk fat
encapsulation efficiency (EE %), maximal/overall value ([1]; over tested concentrations): 50%
Water/octanol partitioning coefficient, Log P [2]: 1.82-2.075 ^(16, 17)

Structure (SMILES): O=C1Nc2ccc(Cl)cc2[C@@](C#CC2CC2)(C(F)(F)F)O1 [Efavirenz]
Waters solubility [3]: 8.55 µg/mL
Log P [2]: 3.89-4.46

Structure (SMILES): CCOC(=O)[C@H](CCc1ccccc1)N[C@@H](C)C(=O)N1CCC[C@H]1C(=O)O [Enalapril]
solubility in water (Remarks) [3]: Drug sparingly soluble in water. Crushed tablets suspended in water

Structure (SMILES): CCOC(=O)[C@H](CCc1ccccc1)N[C@@H](C)C(=O)N1[C@H](C(=O)O)C[C@@H]2CCC[C@@H]21 [Ramipril]
solubility in water (Remarks) [3]: Drug sparingly soluble in water. Crushed tablets suspended in water

Structure (SMILES): COc1ccccc1OCCNCC(O)COc1cccc2[nH]c3ccccc3c12 (stereo not shown) [Carvedilol]
solubility in water (Remarks) [3]: Drug sparingly soluble in water. Special only has 1-month shelf-life.

% Encapsulation efficiency ([1]; 50 μM added compound): 28.64 ± 5.20%
% Encapsulation efficiency ([1]; 100 μM added compound): 29.16 ± 1.50%
% Encapsulation efficiency ([1]; 150 μM added compound): 30.55 ± 3.76%
% Encapsulation efficiency ([1]; 200 μM added compound): 29.83 ± 2.47%
% Encapsulation efficiency ([1]; 250 μM added compound): 28.41 ± 1.56%
% Encapsulation efficiency ([1]; 500 μM added compound): 15.89 ± 1.42 %
% Encapsulation efficiency ([1]; 1000 μM added compound): 15.16 ± 1.46 %
% Encapsulation efficiency ([1]; 1500 μM added compound): 7.57 ± 0.43 %
% Encapsulation efficiency ([1]; 2000 μM added compound): 14.26 ± 2.77 %
% Encapsulation efficiency ([1]; 2500 μM added compound): 4.49 ± 1.08 %
maximal loading capacity (LC) [1]: 9.77 μg per gram of milk fat
logP [4]: ~1.5
Structure (SMILES): O=c1c(O)c(-c2ccc(O)c(O)c2)oc2cc(O)ccc12 [Fisetin]
Water/octanol partitioning coefficient, Log P [2]: 0.464-2.52 ^(14, 15)

Structure (SMILES): CC[C@H](C)C(=O)O[C@H]1C[C@H](O)C=C2C=C[C@H](C)[C@H](CC[C@@H](O)C[C@@H](O)CC(=O)O)[C@H]21 [Pravastatin]
solubility in water (Remarks) [3]: Drug freely soluble in water, crushed tablets often dissolved in water.

Structure (SMILES): CC(=O)Oc1ccccc1C(=O)O [Aspirin]
solubility in water (Remarks) [3]: Very water soluble drug-use dispersible tablets

increase in encapsulation yield compared to reported loading values in emulsions formed using edible oils [5]: at least 3 folds
EE % [5, 7]: 62.09 ± 1.46%
LC %, curcumin/milk fat [5, 7]: 368 μg/g and 368.11 ± 2.92 ^a μg/g
EE % [5, 8]: 61.17 ± 2.13%
LC %, curcumin/milk fat [5, 8]: 244.69 ± 8.53 ^b μg/g
EE % [5, 9]: 62.10 ± 2.54%
LC %, curcumin/milk fat [5, 9]: 372.60 ± 15.27 ^c μg/g
EE % [5, 10]: 66.56 ± 0.13 %
LC %, curcumin/milk fat [5, 10]: 665.55 ± 1.31 ^d μg/g
EE % [5, 11]: 62.55 ± 0.37%
LC %, curcumin/milk fat [5, 11]: 1000.76 ± 5.97 ^e μg/g
EE % [5, 12]: 59.33 ± 0.73%
EE % range over curcumin and ethanol concentrations ([5]; 200-2000 μg/g of raw cream, 1 to 10% v/v ethanol, 10 min): 59-64%
EE % ([5]; Incubation time 10 min, fixed concentration of curcumin and ethanol): 62.36 ± 1.85%
EE % ([5]; Incubation time 20 min, fixed concentration of curcumin and ethanol): 66.43 ± 4.32%
EE % ([5]; Incubation time 30 min, fixed concentration of curcumin and ethanol): 61.20 ± 1.78%
EE % ([5]; Incubation time 40 min, fixed concentration of curcumin and ethanol): 59.75 ± 2.10%
EE % ([5]; Incubation time 50 min, fixed concentration of curcumin and ethanol): 57.24 ± 0.83 %
EE % ([5]; Incubation time 60 min, fixed concentration of curcumin and ethanol): 64.30 ± 2.42%
curcumin encapsulated per gram of milk fat ([5]; MFGs, simple diffusion): Greater than 1000 μg
curcumin absorbance remaining ([6]; WPI control group (water), at 20 and 24 h): 90%
curcumin absorbance remaining ([6]; WPI, 40mM AAPH): 0.03%
curcumin absorbance remaining ([6]; WPI, 40mM AAPH, 20 h): 22%
curcumin absorbance remaining ([6]; WPI, 40mM AAPH, 24 h): 12%
curcumin absorbance remaining ([6]; oleosome control group (water), within 46 h): above 90%
curcumin absorbance remaining ([6]; oleosome, 40mM AAPH): 42%
curcumin absorbance remaining ([6]; oleosome, 40mM AAPH, 20 h): 76%
curcumin absorbance remaining ([6]; oleosome, 40mM AAPH, 24 h): 68%
Structure (SMILES): COc1cc(/C=C/C(=O)CC(=O)/C=C/c2ccc(O)c(OC)c2)ccc1O [curcumin]
LC %, curcumin/milk fat [5, 12]: 1186.65±14.63 μg/g and 1186 μg/g and 1186.65 ± 14.63 ^ μg/g
Log P [2]: 4.3
Log P ([2]; listed as Curcumin): approximately 4.3

Structure (SMILES): CC(C)(C)NCC(O)COc1cccc2c1CC(O)C(O)C2 (stereo not shown) [Nadolol]
solubility in water (Remarks) [3]: Drug sparingly soluble in water. Special only has 1-month shelf-life.

Structure (SMILES): CC(=O)CC(c1ccccc1)c1c(O)c2ccccc2oc1=O (stereo not shown) [Warfarin]
solubility in water (Remarks) [3]: Drug freely soluble in water, crushed tablets often dissolved in water.

Structure (SMILES): CCOC(=O)C1=C(COCCN)NC(C)=C(C(=O)OC)C1c1ccccc1Cl (stereo not shown) [Amlodipine]
solubility in water (Remarks) [3]: Drug sparingly soluble in water. Special only has 1-month shelf-life.
